# Reference: publication PMC4714926 (ACS chemical biology, 2015)
# pKd: −log10 of the molar value.
# Experiments:
# recombinant human FKBP12 = recombinant human FKBP12 (Homo sapiens, UniProt P62942); experiment: PAMPA partitioning with recombinant human FKBP12 on one side of the membrane; details: compared to control wells
# FKBP = details: read-out: KD for FKBP; cited from earlier work
# GFP-HIV protease fusion = experiment: GFP-HIV protease reporter assay in HEK293 T-REx cells; type: cell-based, human
# Sequence of recombinant human FKBP12 (P62942 whole entry): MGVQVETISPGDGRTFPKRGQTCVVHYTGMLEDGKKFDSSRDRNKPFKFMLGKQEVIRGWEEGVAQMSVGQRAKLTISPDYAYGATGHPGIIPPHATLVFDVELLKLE
smiles,measurement,setting,value
CC(C)CN(C[C@@H](O)[C@H](Cc1ccccc1)NC(=O)O[C@H]1CCOC1)S(=O)(=O)c1ccc(N)cc1 [amprenavir],enhancement of partitioning by FKBP12,recombinant human FKBP12,unaffected by FKBP12
C=CC[C@@H]1/C=C(\C)C[C@H](C)C[C@H](OC)[C@H]2O[C@@](O)(C(=O)C(=O)N3CCCC[C@H]3C(=O)O[C@H](/C(C)=C/[C@@H]3CC[C@@H](O)[C@H](OC)C3)[C@H](C)[C@@H](O)CC1=O)[C@H](C)C[C@@H]2OC [FK506],pKd,FKBP,~9.22
COc1ccc(S(=O)(=O)N(CC(C)C)C[C@@H](O)[C@H](Cc2ccccc2)NC(=O)O[C@H]2CCOC2)cc1 [4-OMe-amprenavir],rescue of cell viability and GFP fluorescence,"GFP-HIV protease fusion; 5 μM, after doxycycline induction, fluorescence and light microscopy",could rescue cell viability and increase fluorescence
same,dependence of GFP fluorescence on mCherry-FKBP12 over-expression,"GFP-HIV protease fusion; transient mCherry-FKBP12 over-expression, microscopy",did not show this dependence on mCherry-FKBP12 expression
